From patent US20220017541A1, “INHIBITORS OF ARGINASE” (Black Belt Tx Ltd, priority 2018, published 2022) come the findings set out here.

Experiment [1] deals with T1, recombinant human ARG2 (Homo sapiens, UniProt P78540).
T1 construct: purchased BPS Bioscience 71659
T1 sequence (P78540 23-354): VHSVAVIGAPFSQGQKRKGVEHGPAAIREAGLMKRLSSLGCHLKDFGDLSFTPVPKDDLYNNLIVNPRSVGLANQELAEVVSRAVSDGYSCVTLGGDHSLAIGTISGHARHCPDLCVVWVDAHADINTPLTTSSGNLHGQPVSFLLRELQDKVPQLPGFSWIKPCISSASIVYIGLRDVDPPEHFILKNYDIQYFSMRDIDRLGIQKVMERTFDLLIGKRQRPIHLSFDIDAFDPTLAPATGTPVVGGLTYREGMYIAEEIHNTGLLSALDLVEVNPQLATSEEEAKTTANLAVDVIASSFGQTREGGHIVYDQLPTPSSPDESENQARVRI
Kind of experiment: Arginase enzymatic assay in vitro, recombinant human ARG2 (colorimetric urea detection). The experiment is classed as biochemical. The note with it: recombinant human arginase 2; read-out: IC50 Inh rhARG2. From the text:
(§1) Arginase catalyzes the hydrolysis of L-arginine into L-ornithine and urea. Urea amount produced by this reaction can be detected using a colorimetric assay and used as an indirect measurement of arginase activity. An adapted protocol from (Baggio, R., et al., J Pharmacol Exp Ther, 1999. 290(3): p. 1409-16) was used for the testing the ability of exemplary compounds of the invention to inhibit arginase enzymes from a variety of sources including recombinant human ARG1 and 2, lysates of human red blood cells (RBC) and intact murine macrophages, as described below.
(§2) Compounds of the invention were prepared from powder as 10 mM stock solutions in DMSO and stored in presence of N2 neutral atmosphere at −80° C. For IC50 determination and just before the assay, exemplary compounds were successively diluted to get the following concentrations: 210, 70, 21, 7, 2.1, 0.7, 0.21, 0.07, 0.021, 0.007, 0.0021 and 0.0007 μM (i.e., final concentrations in the wells of 30, 10, 3, 1, 0.3, 0.1, 0.03, 0.01, 0.003, 0.001, 0.0003, 0.0001 μM).
(§3) Assays were run in clear flat bottom 96-well plates (Nunclon, Cat. No. #167008) adding in each well the following solutions in this order: (1) 10 μl of Tris-HCl solution supplemented with 0.1% bovine serum albumin (BSA) containing 1.563 μg/ml recombinant human ARG1 (R&D System, Cat. No. #5868-AR-010), (2) 30 μl of Tris-HCl buffer containing 10 mM MnCl2 and (3) 10 μL of a pre-dilution of each test article or DMSO (vehicle). Compounds were allowed to interact with the enzyme-cofactor complex pre-incubating the plate at 37° C. for 30 min. To start the reaction, 20 μl of 50 mM L-arginine (Sigma Aldrich Cat. #A5006-100G) were added to each well in exception of the blank reaction (see below). All reactions were allowed to happen for 1 h at 37° C. To detect the urea production, reactions were stopped by adding 200 μl of a mixture of reagent A (4 mM o-phthalaldehyde in 50 mM Boric Acid, 1 M Sulfuric Acid, 0.03% Brij-35 (w/v)) and reagent B (4 mM N-(1-naphthyl)ethylenediamine in 50 mM Boric Acid, 1 M Sulfuric Acid, 0.03% Brij-35 (w/v)) in equal proportion. Color product was developed for 1 h at room temperature (RT) protected from light and then absorbance at 520 nm was measured using a Multifunction Microplate Reader (Synergy 4, Bioteck). Blank reactions were carried out by adding the L-arginine substrate only after the addition of mixture A-B. All reactions were carried out in duplicates.
(§4) The inhibition of urea production was calculated subtracting the absorbance from the blank reaction (zero enzymatic urea production) to the absorbance from all reactions and it was expressed as the percentage of the absorbance from the reaction containing the test article with respect to the absorbance from vehicle reaction (maximum of urea production).
For testing inhibitory activity over recombinant human arginase II, 10 μl of Tris-HCl solution supplemented with 0.1% BSA containing 1.5 μg/ml recombinant human ARG2 (BPS Bioscience, Cat. No. #71659) was used instead of ARG1.

The target of experiment [2] is T2, recombinant human ARG1 (Homo sapiens, UniProt P05089).
T2 construct: purchased R&D System 5868-AR-010
T2 sequence (P05089 1-322): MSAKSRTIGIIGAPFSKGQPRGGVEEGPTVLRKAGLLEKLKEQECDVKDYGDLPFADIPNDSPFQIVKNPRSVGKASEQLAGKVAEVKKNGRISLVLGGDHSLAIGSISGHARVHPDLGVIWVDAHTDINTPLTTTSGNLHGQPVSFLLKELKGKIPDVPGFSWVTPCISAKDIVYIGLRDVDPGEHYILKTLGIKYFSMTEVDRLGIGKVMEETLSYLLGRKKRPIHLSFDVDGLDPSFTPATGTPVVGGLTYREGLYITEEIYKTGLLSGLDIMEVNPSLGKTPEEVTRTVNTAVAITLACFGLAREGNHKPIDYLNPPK
Kind of experiment: Arginase enzymatic assay in vitro, recombinant human ARG1 (colorimetric urea detection). The experiment is classed as biochemical. The note with it: recombinant human arginase 1; read-out: IC50 Inh rhARG1.
Excerpt: as §1, §2, §3, §4

SMILES strings stand for the structures.

For orientation: IC50 means the midpoint of a concentration-inhibition curve. Consider `NC(CCCCB(O)O)(C(=O)O)C1CCN(C2CCc3ccccc32)CC1` (single isomer, unassigned) [Compound 2, 2-amino-6-borono-2-(1-(2,3-dihydro-1H-inden-1-yl)piperidin-4-yl)hexanoic acid], for which the IC50 in experiment [1] and in experiment [2] was less than 500 nM each time.
As to `NC(CCCCB(O)O)(C(=O)O)C1CCN(C2CCc3ccccc32)CC1` (single isomer, unassigned) [Compound 3, 2-amino-6-borono-2-(1-(2,3-dihydro-1H-inden-1-yl)piperidin-4-yl)hexanoic acid], the IC50 in experiment [1] and in experiment [2] was greater than 5000 nM throughout.
For `NC(CCCCB(O)O)(C(=O)O)C1CCN(C2CCCc3ccccc32)CC1` (single isomer, unassigned) [Compound 4, 2-amino-6-borono-2-(1-(1,2,3,4-tetrahydronaphthalen-1-yl)piperidin-4-yl)hexanoic acid], the IC50 in experiment [1] is 500 to 5000 nM; in experiment [2] it was less than 500 nM.
Take `NC(CCCCB(O)O)(C(=O)O)C1CCN(C2CCCc3ccccc32)CC1` (single isomer, unassigned) [Compound 5, 2-amino-6-borono-2-(1-(1,2,3,4-tetrahydronaphthalen-1-yl)piperidin-4-yl)hexanoic acid]: the IC50 in experiment [1] and in experiment [2] was less than 500 nM in each case.
On to `NC(CCCCB(O)O)(C(=O)O)C1CCN(C2CCCc3ccccc32)CC1` (single isomer, unassigned) [Compound 6, 2-amino-6-borono-2-(1-(1,2,3,4-tetrahydronaphthalen-1-yl)piperidin-4-yl)hexanoic acid], for which the IC50 in experiment [1] and in experiment [2] was greater than 5000 nM each time.
Take `CC(c1ccccc1)N1CCC(C(N)(CCCCB(O)O)C(=O)O)CC1` (single isomer, unassigned) [Compound 10, 2-amino-6-borono-2-(1-(1-phenylethyl)piperidin-4-yl)hexanoic acid]: the IC50 in experiment [1] and in experiment [2] was less than 500 nM in each case.
`CC(c1ccccc1)N1CCC(C(N)(CCCCB(O)O)C(=O)O)CC1` (single isomer, unassigned) [Compound 11, 2-amino-6-borono-2-(1-(1-phenylethyl)piperidin-4-yl)hexanoic acid]: the IC50 in experiment [1] and in experiment [2] was greater than 5000 nM throughout.
Consider `NC(CCCCB(O)O)(C(=O)O)C1CCN(C2CCc3cc(Cl)ccc32)CC1` (single isomer, unassigned) [Compound 14, 2-amino-6-borono-2-[1-(5-chloroindan-1-yl)-4-piperidyl]hexanoic acid], for which the 50% inhibitory concentration (IC50) in experiment [1] and in experiment [2] was less than 500 nM in each case.
On to `NC(CCCCB(O)O)(C(=O)O)C1CCN(C2CCCc3cc(Cl)ccc32)CC1` (single isomer, unassigned) [Compound 17, 2-amino-6-borono-2-(1-(6-chloro-1,2,3,4-tetrahydronaphthalen-1-yl)piperidin-4-yl)hexanoic acid], for which the IC50 in experiment [1] and in experiment [2] was less than 500 nM each time.
Regarding `CNC(CCCCB(O)O)(C(=O)O)C1CCN(C2CCCc3ccccc32)CC1` (single isomer, unassigned) [Compound 79, 6-borono-2-(methylamino)-2-(1-(1,2,3,4-tetrahydronaphthalen-1-yl)piperidin-4-yl)hexanoic acid], the IC50 in experiment [1] and in experiment [2] was less than 500 nM throughout.
For the molecule `NC(CCCCB(O)O)(C(=O)O)C1CCN(C2CCCc3ccc(F)cc32)CC1` (single isomer, unassigned) [Compound 83, 2-amino-6-borono-2-(1-(7-fluoro-1,2,3,4-tetrahydronaphthalen-1-yl)piperidin-4-yl)hexanoic acid], the half-inhibitory concentration (IC50) in experiment [1] and in experiment [2] was less than 500 nM throughout.
In the case of `NC(CCCCB(O)O)(C(=O)O)C1CCN(C2CCCCc3ccccc32)CC1` (single isomer, unassigned) [Compound 84, 2-amino-6-borono-2-(1-(6,7,8,9-tetrahydro-5H-benzo[7]annulen-5-yl)piperidin-4-yl)hexanoic acid], the IC50 in experiment [1] is 500 to 5000 nM; in experiment [2] it was less than 500 nM.
With `NC(CCCCB(O)O)(C(=O)O)C1CCN(C2CCc3cc(C(F)(F)F)ccc32)CC1` (single isomer, unassigned) [Compound 85, 2-amino-6-borono-2-[1-[5-(trifluoromethyl)indan-1-yl]-4-piperidyl]hexanoic acid], the IC50 in experiment [1] and in experiment [2] was less than 500 nM in each case.
Consider `NC(CCCCB(O)O)(C(=O)O)C1CCN(C2CCc3ccccc32)CC1` (centres unmarked) [Compound 1, 2-amino-6-borono-2-(1-(2,3-dihydro-1H-inden-1-yl)piperidin-4-yl)hexanoic acid], for which the IC50 in experiment [1] is 500 to 5000 nM; in experiment [2], less than 500 nM.
On the same counts, the results for `CC(c1ccccc1)N1CCC(C(N)(CCCCB(O)O)C(=O)O)CC1` (centres unmarked) [Compound 9, 2-amino-6-borono-2-(1-(1-phenylethyl)piperidin-4-yl)hexanoic acid] are 500 to 5000 nM and less than 500 nM.
For `CC1(C)OB(CCCCC(N)(C(=O)O)C2CCN(C3CCCc4ccccc43)CC2)OC1(C)C` (centres unmarked) [Compound 77, 2-amino-2-(1-(1,2,3,4-tetrahydronaphthalen-1-yl)piperidin-4-yl)-6-(4,4,5,5-tetramethyl-1,3,2-dioxaborolan-2-yl)hexanoic acid], the values for the concentration for half-maximal inhibition (IC50) in experiment [1] and in experiment [2] were 500 to 5000 nM and less than 500 nM, respectively.
